Results as given in patent US12374421B2, “Bioinformatic processes for determination of peptide binding” (priority 2013, dated 2025).

Legend:
RL9-pulsed splenocytes = system: RL9-pulsed splenocytes; set-up: species or system mice; settings: mouse, in vivo
MHC I molecules = settings: in vivo; cited from earlier work

## RYCINSASL (SEQ ID NO: 28419) [RL9]
RL9-pulsed splenocytes
  response pattern after immunization: protective response pattern
MHC I molecules
  MHC I presentation: presented on MHC I molecules
